In patent US6482934B1, “Methods and compositions for detecting and treating kidney diseases associated with adhesion of crystals to kidney cells” (ARCH Development Corp., priority 1995, dated 2002):
Like-named read-outs stand apart in the source and are kept apart here.

Key:
MDCK cells [1] = assay: [14C]COM crystal adhesion to MDCK cells; type: cell-based, canine; details: 0.55 μM heparin
Experimental: (§1) Madin-Darby Canine Kidney (MDCK) cells were grown in DMEM containing 2% calf serum and 1.6 μM biotin as described previously. To prepare high-density, quiescent cultures 2×10^6 cells/60-mm dish were plated in DMEM containing 2% calf serum and 1.6 μM biotin. The next day medium was aspirated and replaced with fresh medium containing 0.5% calf serum and biotin. One day later the cultures were used for study.
(§2) Crystals are sterilized by heating to 180° C. overnight.
(§3) High-density, quiescent cultures of BSC-1 cells, MDCK cells, or Balb/c3T3 fibroblasts are prepared. At the time of assay, the medium is aspirated and replaced with 5 ml of phosphate-buffered saline (PBS) (10 mM Na2PO4, 155 mM NaCl, 5.4 mM KCl, pH 7.4 at 37° C.) to which the compound under investigation is added. […] The culture dishes are gently agitated for 5 seconds to uniformly distribute crystals which subsequently settle to the surface of the cell monolayer under the force of gravity. After two minutes buffer is aspirated and the cells are then washed three times with PBS (5 ml). The cell monolayer is then scraped directly into a scintillation vial containing 6 N HCl (0.5 ml) to which 4.5 ml of Ecoscint (National Diagnostics, E. Palmetto, Fla.) is added, and the amount of radioactivity is measured as described by Riese, et al. (1992).

MDCK cells [2] = assay: Crystal endocytosis by MDCK cells; type: cell-based, canine; details: heparin; COM crystals 200 μg/ml
Experimental: as §1
(§4) At specified times after addition of crystals to high-density, quiescent cultures the medium was aspirated and a solution of crystalline trypsin was used to detach cells which were then inspected under a polarizing microscope. One hundred cells from each culture were counted, and each cell was scored for the presence of one or more internalized crystal(s).

BSC-1 cells [3] = assay: [14C]COM crystal adhesion to BSC-1 cell monolayers; type: cell-based, African green monkey
Experimental: (§5) Renal epithelial cells of the nontransformed African green monkey line (BSC-1) were used. Cells were grown in Dulbecco-Vogt modified Eagle's medium containing 25 mM glucose (DMEM), 1.6 μM biotin and 1% calf serum at 38° C. in a CO2 incubator. Under these conditions, BSC-1 cells achieved confluence at 10^6 cells per 60-mm plastic dish (Nunc). High-density, quiescent cultures were prepared by plating 2×10^6 cells in a 60-mm dish. The spent medium was changed after 3 days so that there were 3-4×10^6 cells/dish 6 days later. Medium was then aspirated and replaced with fresh medium containing […] and 0.01% calf serum; 3 days later the quiescent cultures were used for study.
as §2, §3

BSC-1 cells [4] = assay: Adhesion of agent-coated COM crystals to BSC-1 cells; type: cell-based, African green monkey; details: compared with uncoated control crystals
Experimental: Each tube is then centrifuged at 3000 g for 5 minutes. The supernatant is gently aspirated and replaced with a supersaturated calcium oxalate solution to resuspend the coated crystals. To assure removal of any nonabsorbed compound, crystals are resuspended and washed three times in succession. Cell-associated radioactivity is determined 2 minutes after addition of these coated crystals as described herein.

Balb/c3T3 fibroblasts [5] = assay: Crystal endocytosis by Balb/c3T3 fibroblasts; type: cell-based; details: heparin; COM crystals 200 μg/ml
Experimental: (§6) Balb/c3T3 fibroblasts were grown in DMEM containing 10% calf serum. To prepare high-density, quiescent cultures, 7×10^5 cells were plated per 60-mm dish. Two days later the medium was aspirated and replaced with fresh medium containing 1% calf serum and 1.6 μM biotin; the cells were used one day later when a density of […] was reached.
as §4

BSC-1 cells [6] = assay: Crystal endocytosis by BSC-1 cells; type: cell-based, African green monkey
Experimental: as §5, §4

Balb/c3T3 fibroblasts [7] = assay: [14C]COM crystal adhesion to 3T3 fibroblasts; type: cell-based; details: 0.55 μM heparin; COM crystals 200 μg/ml
Experimental: as §6, §2, §3

BSC-1 cells [8] = assay: Endocytosis of agent-coated COM crystals by BSC-1 cells; type: cell-based, African green monkey; details: THP 5×10^−8 M; 6×10^−10M in the medium
Text: as §4

heparin
maximal inhibition of adhesion of COM crystals to MDCK cells (MDCK cells [1]): 89% | inhibition of COM crystal endocytosis in MDCK cells (MDCK cells [2]): 60% | effect on adhesion of COM crystals to BSC-1 cells (in words) (BSC-1 cells [3]): blocked | IC50 (BSC-1 cells [3]; concentration that inhibited crystal adhesion by 50%, N.I. = noninhibitory, read-out: Half-maximal concentration): 0.015 µM | adhesion of crystals after heparin added later than crystals (BSC-1 cells [3]; heparin 10 μg/ml (0.55 μM) added 1 to 30 minutes after crystals, measured after 60 minutes): appeared to stop immediately | displacement of crystals already bound to cells (BSC-1 cells [3]; heparin 10 μg/ml present for up to an additional 55 minutes): did not appear to displace crystals already bound to cells | decrease in adherence of COM crystals (BSC-1 cells [3]; heparin 18,000 Da at 0.006 μM): 33% | Maximal inhibition of COM crystal adhesion (BSC-1 cells [3]; heparin 18,000 Da at concentrations above 0.028 μM): 95% | Kd (BSC-1 cells [3]; slope of Langmuir isotherm plot of crystal adhesion, N.I. = noninhibitory, read-out: Langmuir affinity constant (dissociation constant)): 0.043 µM | adhesion of crystals previously coated with the molecule (BSC-1 cells [4]): less than control | inhibition of COM crystal endocytosis in fibroblasts (Balb/c3T3 fibroblasts [5]): 24% | combined inhibitory effects on COM crystal endocytosis (BSC-1 cells [6]; RGDS 10 μg/ml, heparin 5 μg/ml and TGF-β2 2 ng/ml): not additive | decrease in COM crystal endocytosis compared to control (BSC-1 cells [6]; heparin 2 μg/ml): 36% | effect on COM crystal uptake at higher concentration (BSC-1 cells [6]; heparin as high as 100 μg/ml): did not inhibit uptake further | decrease in adhesion of COM crystals to 3T3 fibroblasts (Balb/c3T3 fibroblasts [7]): 85%

THP: urinary Tamm-Horsfall glycoprotein, most abundant protein in human urine
endocytosis of crystals incubated with THP and added directly without centrifuging (BSC-1 cells [8]): to the same extent as uncoated crystals | effect on adhesion of COM crystals to BSC-1 cells (in words) (BSC-1 cells [3]): no effect | Half-maximal concentration (BSC-1 cells [3]; concentration that inhibited crystal adhesion by 50%, N.I. = noninhibitory): N.I. | effect on adhesion of COM crystals to BSC-1 cells (in words) (BSC-1 cells [3]; listed as Tamm-Horsfall glycoprotein): did not | Langmuir affinity constant (dissociation constant) (BSC-1 cells [3]; slope of Langmuir isotherm plot of crystal adhesion, N.I. = noninhibitory): N.I. | decrease in COM crystal endocytosis (BSC-1 cells [6]; THP 5×10−8 M): 34% | decrease in COM crystal endocytosis (BSC-1 cells [6]; THP 10^−8 M): 21%
